Experiments:
Experiment in all cases: relative viability (nuclei count vs DMSO), 5 days (fraction); higher = more cells survive
AT-7519 + Bortezomib = compound: O=C(NC1CCNCC1)c1n[nH]cc1NC(=O)c1c(Cl)cccc1Cl [AT-7519] + CC(C)C[C@H](NC(=O)[C@H](Cc1ccccc1)NC(=O)c1cnccn1)B(O)O [Bortezomib] (partner 0.002 µM)
Method in brief: (§1)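 Lung cancer cell lines in 1536-well plates got either a single drug or a fixed anchor-drug dose together with five library-drug doses (not always all listed) in √10 steps, by pin tool, on the day after seeding. Nuclei were counted after 5 days, and relative viability is the treated-to-vehicle ratio of nuclei counts. Values are medians of duplicate plates.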

AT-7519 + Foretinib = compound: O=C(NC1CCNCC1)c1n[nH]cc1NC(=O)c1c(Cl)cccc1Cl [AT-7519] + COc1cc2c(Oc3ccc(NC(=O)C4(C(=O)Nc5ccc(F)cc5)CC4)cc3F)ccnc2cc1OCCCN1CCOCC1 [Foretinib] (partner 0.25 µM)
Method in brief: as §1

AT-7519 + Linsitinib = compound: O=C(NC1CCNCC1)c1n[nH]cc1NC(=O)c1c(Cl)cccc1Cl [AT-7519] + C[C@]1(O)C[C@@H](c2nc(-c3ccc4ccc(-c5ccccc5)nc4c3)c3c(N)nccn32)C1 [Linsitinib] (partner 1 µM)
Method in brief: as §1

[1] = compound: C1=CC2=C(C=C(C(=C2N=C1)O)N=NC3=CC4=C(C=C3)C=C(C=C4)S(=O)(=O)O)S(=O)(=O)O + Cc1cc(Nc2cc(N3CCN(C)CC3)nc(Sc3ccc(NC(=O)C4CC4)cc3)n2)n[nH]1 [Tozasertib] (partner 0.1 µM)
Method in brief: as §1

Cell Line	relative viability (AT-7519 + Bortezomib; first compound 0.01 µM)	relative viability (AT-7519 + Bortezomib; first compound 0.03162 µM)	relative viability (AT-7519 + Bortezomib; first compound 0.3162 µM)	relative viability (AT-7519 + Bortezomib; first compound 1 µM)	relative viability (AT-7519 + Foretinib; first compound 0.01 µM)	relative viability (AT-7519 + Foretinib; first compound 0.03162 µM)	relative viability (AT-7519 + Foretinib; first compound 0.3162 µM)	relative viability (AT-7519 + Foretinib; first compound 1 µM)	relative viability (AT-7519 + Linsitinib; first compound 0.01 µM)	relative viability (AT-7519 + Linsitinib; first compound 0.03162 µM)	relative viability (AT-7519 + Linsitinib; first compound 0.3162 µM)	relative viability (AT-7519 + Linsitinib; first compound 1 µM)	relative viability ([1]; first compound 0.08 µM)	relative viability ([1]; first compound 0.253 µM)	relative viability ([1]; first compound 0.8 µM)	relative viability ([1]; first compound 2.53 µM)	relative viability ([1]; first compound 8 µM)
EBC-1	0.615	0.551	0.443	0.23	0.101	0.106	0.0999	0.0905	0.935	1.01	0.938	0.934	–	–	–	–	–
EKVX	0.978	0.911	0.996	1.13	0.75	0.902	0.996	0.773	0.963	0.949	0.928	0.959	0.458	0.44	0.34	0.446	0.389
EMC-BAC-2	1.04	1.07	1.01	1.07	0.977	0.998	1.02	0.794	0.823	0.816	0.778	0.77	0.303	0.29	0.303	0.337	0.302
EPLC-272H	1.03	0.973	0.723	0.812	0.753	0.512	0.622	0.28	0.999	1.1	0.945	1.18	0.351	0.365	0.203	0.273	0.325
H3255	0.904	0.825	0.984	0.766	0.901	0.876	0.906	0.794	0.964	0.888	0.909	0.788	0.59	0.705	0.655	0.604	0.864
HARA	1.14	1.16	1.1	1.06	1.07	0.638	0.906	0.591	1.15	0.92	0.945	0.671	0.105	0.107	0.102	0.111	0.117
HCC-15	1.07	1.01	0.852	0.977	1.11	0.941	0.914	0.403	0.961	0.879	0.724	0.43	0.462	0.458	0.422	0.441	0.45
HCC-44	0.752	1.02	1.01	0.979	–	–	–	–	0.677	0.62	0.678	0.543	–	0.853	0.999	1.03	0.873
HCC-78	0.479	0.38	0.6	0.516	0.564	0.563	0.597	0.575	0.52	0.452	0.567	0.374	0.41	0.345	0.469	0.488	0.349
HCC-366	1.26	0.864	1.07	0.442	0.994	0.896	0.941	0.717	0.639	0.522	0.429	0.185	0.152	0.0806	0.188	0.113	0.125
